In patent US20240114902A1, “COMPOSITIONS AND METHODS FOR DETERRING OVIPOSITION BY FRUIT FLIES” (The United States of America, as represented by The …, priority 2022, published 2024):

Key:
non-SWD drosophilids = assay: Field test 2: sentinel raspberries in guava orchard, non-SWD drosophilids; assay type: in vivo, D. immigrans, D. simulans, D. melanogaster; settings: 20 mg CFA or equivalent dose/raspberry, 2 days
Protocol: (§1) Field test 2 The oviposition deterrence of the 2c key-component blend and its two individual components against SWD and non-SWD drosophilids was tested under field conditions. This experiment was conducted in a guava orchard (19° 36′33.6″N, 155° 04′ 12.6″W) located near Hilo, Hawaii. To monitor oviposition, four sentinel organic raspberries purchased from a local grocery were placed (receptacles stuffed with cotton) inside a deli cup (600 mL; Placon, Madison, Wisconsin, USA). Each cup had nine 1 cm diameter holes spaced 3 cm apart along the cup's circumference and 8.5 cm from the bottom, which allowed the drosophilids to enter the cup. The four raspberries in each cup were surface-treated with one of five treatments: 1) 2c blend at 20 mg CFA equivalent/200 μL hexane/raspberry, 2) C8:0 at 20 mg CFA equivalent/200 μL hexane/raspberry, 3) C10:0 at 20 mg CFA equivalent/200 μL hexane/raspberry, 4) CFA at 20 mg/200 μL hexane/raspberry, or 5) 200 μL of hexane control/raspberry. The deli-cup traps were hung in guava trees 1.5 m from the ground with at least 10 m spacing between adjacent traps. […] Raspberries were removed from the traps, placed in rearing cups (600 mL deli cup with organdy cap), held in environmental chamber (22.1±1.9° C., 71.7±3.1% RH, 16:8 L:D), and monitored over a 2-week period. All emerged adults were counted and identified as SWD or non-SWD drosophilids. […]

Bactrocera dorsalis = assay: B. dorsalis spatial deterrence, two-choice traps baited with guava juice; assay type: in vivo; settings: tested individually
Protocol: In addition to CFA, a series of odd-numbered carbon fatty acids (C9:0 to C17:0) and fatty acid methyl esters were evaluated for the spatial deterrence to B. dorsalis that results in oviposition reduction. Table 3 below lists the fatty acid methyl esters tested for spatial repellency for Bactrocera dorsalis. […] FIG. 16A, FIG. 16C, FIG. 16E, FIG. 16G, FIG. 16I, FIG. 16K, FIG. 16M, FIG. 16O, FIG. 16Q, and FIG. 16S show the mean numbers (±SEM) of mated female B. dorsalis flies captured, and FIG. 16B, FIG. 16D, FIG. 16F, FIG. 16H, FIG. 16J, FIG. 16L, FIG. 16N, FIG. 16P, FIG. 16R, and FIG. 16T show the number of B. dorsalis eggs oviposited in traps baited with guava juice (control) and with guava juice plus one of the coconut fatty acid methyl ester compounds in two-choice bioassays. For each test, different letter on the bar indicate a significant difference by Tukey-Kramer tests at P<0.05, n=4.

Drosophila suzukii (SWD) = assay: Field test 2: sentinel raspberries in guava orchard, SWD adults emerged; assay type: in vivo; settings: 20 mg CFA equivalent/raspberry, total over replicates
Protocol: as §1

| SMILES | effect on oviposition from resident (non-SWD) drosophilids (non-SWD drosophilids) | effect on female B. dorsalis attraction and oviposition to host fruit odors (Bactrocera dorsalis) | SWD adults emerging from treated raspberries (Drosophila suzukii (SWD)) [SWD] |
| --- | --- | --- | --- |
| CCCCCCCC(=O)O [C8:0, caprylic acid] | not effective | significantly reduced | – |
| CCCCCCCCCC(=O)O [C10:0, capric acid] | not effective | – | 2 |
